Experimental data as given in publication PMC8004375, “Pharmacokinetic Study of Safrole and Methyl Eugenol after Oral Administration of the Essential Oil Extracts of Asarum in Rats by GC-MS” (BioMed Research International, 2021).

Experiments:
[1] = Pharmacokinetic study in rat plasma after oral administration of Asarum essential oil extracts (GC-MS); type: in vivo, Sprague–Dawley rats; conditions: oral Asarum extracts 20 g/kg; for MRT / Cmax / half-life / AUC(0-inf) / AUC(0-t) / Tmax / MRT last / MRT inf: male, Sprague-Dawley, in vivo; for MRT: 0−t or 0−∞ not specified, read-out: mean residence time; for Cmax: as stated in text without unit; for half-life: elimination half-life; for half-life / AUC(0-inf) / AUC(0-t) / Tmax / MRT last / MRT inf: n = 6, mean ± SD; for MRT last: read-out: MRT(0 − t); for MRT inf: read-out: MRT(0 − ∞)
Experimental: The GC–MS system (Shimadzu GC-MS QP-2010 Ultrasystem) was coupled with an AOC-20i autosampler. The column used was a DB-17 capillary column (30 m × 0.25 mm × 0.25 μm film thickness). 99.99% high purity Helium was used as the carrier gas with a flow rate of 1.3 mL/min. The column temperature was programmed as follows: initial temperature 90°C, 20°C/min to 106°C, 30°C/min to 136°C, 40°C/min to 210°C, and finally 5.5°C/min to 214°C. The injection volume was 1 μL, and the injection temperature was 250°C.
The MS data were acquired in the electron-impact mode, and the SIM mode was used for quantification. The three characteristic ions of safrole were 162.0, 131.0, and 104.0 and that of methyl eugenols were 178.0, 163.0, and 147.0 (ions in bold fonts were used for the quantification). The transfer line temperature was set at 250°C, and the ionization source temperature was set at 230°C. The total run time was 4.5 min with a solvent delay of 3 min.
100 μL plasma sample was incorporated with 10 μL n-hexane and 10 μL of IS (5 μg/mL) and vortexed for 30 seconds. 130 μL n-hexane was then added to the sample and vortex-mixed for 5 min. The samples were centrifuged (12,000 × g, 10 min, 4°C), and […] was injected for GC-MS analysis.
All animal protocols were approved by the Laboratory Animal Ethics Committee of Tianjin University Traditional Chinese Medicine (TCM-LAEC20190059). Six male Sprague–Dawley rats (body weight 240 ± 10 g) were fasted for 12 h prior to the study, with free access to water. The Asarum extracts were administered to rats orally at a dose of 20 g/kg. 0.5% CMC-Na aqueous solution was used to dissolve the Asarum extracts to a concentration of 2 g/mL suspension and stored at 4°C. Approximately 220 μL blood samples were collected from the suborbital vein into centrifuge tubes at 0, 0.08, 0.17, 0.5, 1, 2, 4, 6, 8, 10, 12, 24, 36, 48, and 60 h postadministration in rats. The plasma was separated by centrifugation at 4000 × g for 10 min immediately and frozen at -80°C until the time of analysis. The main program pharmacokinetic parameters were processed by Drug and Statistics 3.0 (Medical College of Wannan, China).

[2] = Stability of analytes in rat plasma (QC samples); type: in vitro ADME; conditions: for Stability in plasma samples: all conditions studied: room temperature 4 h, three freeze-thaw cycles, auto-sampler 12 h, -80°C 7 days; for Measured concentration, three freeze-thaw cycles / Measured concentration, -80°C for 7 days / Measured concentration, auto-sampler for 12 h / Measured concentration, room temperature for 4 h: rat plasma, n = 6; for Measured concentration, three freeze-thaw cycles: freeze -20°C
Experimental: The stability was evaluated under different condition with variable time and temperature including long-term stability (storing the QC samples at -80°C for 7 days), short-term stability (storing the QC samples at room temperature for 4 h), freeze/thaw stability (three freeze (-20°C) thaw cycles), and auto-sampler stability (incubating the spiked samples for 12 h in auto-sampler).

[3] = International Agency for Research on Cancer classification; cited from earlier work
[4] = high QC (spiked 12000 ng/mL safrole, 8000 ng/mL methyl eugenol)
[5] = low QC (spiked 120 ng/mL safrole, 80 ng/mL methyl eugenol)
[6] = medium QC (spiked 1200 ng/mL safrole, 800 ng/mL methyl eugenol)

| SMILES | MRT [1] | Cmax [1] | half-life [1] | AUC(0-inf) [1] | AUC(0-t) [1] | Tmax [1] | MRT last [1] | MRT inf [1] | Stability in plasma samples [2] | Measured concentration, three freeze-thaw cycles [2, 4] | Measured concentration, -80°C for 7 days [2, 4] | Measured concentration, auto-sampler for 12 h [2, 4] | Measured concentration, room temperature for 4 h [2, 4] | Measured concentration, three freeze-thaw cycles [2, 5] | Measured concentration, -80°C for 7 days [2, 5] | Measured concentration, auto-sampler for 12 h [2, 5] | Measured concentration, room temperature for 4 h [2, 5] | Measured concentration, three freeze-thaw cycles [2, 6] | Measured concentration, -80°C for 7 days [2, 6] | Measured concentration, auto-sampler for 12 h [2, 6] | further results |
| --- | --- | --- | --- | --- | --- | --- | --- | --- | --- | --- | --- | --- | --- | --- | --- | --- | --- | --- | --- | --- | --- |
| C=CCc1ccc(OC)c(OC)c1 [Methyl eugenol] | 10.6 ± 0.63 h | 823 ± 124 ng/mL | 3.67 ± 1.6 h | 15300 ± 2790 ng·h/mL | 15200 ± 2760 ng·h/mL | 6.67 ± 2.07 h | 10.6 ± 0.63 h | 10.6 ± 0.63 h | stable | 7287.0 ± 522.7 ng/mL | 7367.9 ± 638.7 ng/mL | 7100.8 ± 230.4 ng/mL | 7418.6 ± 62.9 ng/mL | 78.5 ± 6.5 ng/mL | 81.0 ± 5.2 ng/mL | 73.9 ± 6.1 ng/mL | 89.6 ± 8.8 ng/mL | 708.5 ± 16.2 ng/mL | 749.8 ± 40.7 ng/mL | 727.7 ± 6.0 ng/mL | completely metabolised after [1]: 36 h; Measured concentration, room temperature for 4 h [2, 6]: 751.7 ± 7.8 ng/mL; IARC carcinogen group [3]: group 2B carcinogen |
| C=CCc1ccc2c(c1)OCO2 [Safrole] | 18.4 ± 0.64 h | 1980 ± 267 ng/mL | 2.44 ± 2.72 h | 53000 ± 5260 ng·h/mL | 53000 ± 5290 ng·h/mL | 13 ± 1.1 h | 18.4 ± 0.64 h | 18.4 ± 0.63 h | stable | 12526.3 ± 331.5 ng/mL | 12741.7 ± 103.1 ng/mL | 12065.2 ± 210.7 ng/mL | 12751.7 ± 38.6 ng/mL | 137.0 ± 10.6 ng/mL | 135.1 ± 11.0 ng/mL | 136.3 ± 11.8 ng/mL | 132.5 ± 12.4 ng/mL | 1319.7 ± 21.2 ng/mL | 1348.1 ± 41.4 ng/mL | 1271.1 ± 3.3 ng/mL | detectable in plasma samples after [1]: 48 h; Measured concentration, room temperature for 4 h [2, 6]: 1306.7 ± 15.7 ng/mL; IARC carcinogen group [3]: group 2B carcinogen |
